These results are taken from ChEMBL document CHEMBL4304811, “Development of a Water-Soluble Indolylmaleimide Derivative IM-93 Showing Dual Inhibition of Ferroptosis and NETosis” (ACS Med Chem Lett, 2019).

Data set [1] deals with HL-60. Nature of the data set: Cytoprotection against human HL60 cells assessed as inhibition of H2O2-induced cell death pretreated for 1 hr followed by H2O2 stimulation measured after 3 hrs by p-iodonitrotetrazolium violet dye based LDH assay. The format is functional.
Data set [2] relates to Neutrophil. Kind of data set: Inhibition of PMA-induced NETosis in human neutrophils assessed as inhibition of ROS production at 25 uM pretreated for 25 mins followed by PMA stimulation and measured after 20 mins by DCFH-DA based flow cytometry. The format is functional, cell-based.
Data set [3] relates to Neutrophil. Kind of data set: Inhibition of PMA-induced NETosis in human neutrophils assessed as reduction in lipid peroxidation at 2.5 uM preincubated for 30 mins followed by PMA stimulation measured after 30 mins by C11-Bodipy fluorescent dye based flow cytometry. In kind it is functional, cell-based.
In data set [4] the test system is NIH3T3. Kind of data set: Inhibition of erastin-induced ferroptosis in mouse NIH/3T3 cells after 24 hrs by WST-8 assay. In kind it is functional, cell-based. To be noted: NIH3T3, 24 h.
Data set [5] deals with Neutrophil. Kind of data set: Inhibition of PMA-induced NETosis in human neutrophils at 2.5 uM preincubated for 30 mins followed by PMA stimulation and measured after 3 hrs by Hoechst […] staining based fluorescence microscopic analysis. In kind it is functional, cell-based.
Data set [6] has as its system Neutrophil. Kind of data set: Inhibition of PMA-induced NETosis in human neutrophils at 25 uM preincubated for 30 mins followed by PMA stimulation and measured after 3 hrs by Hoechst […] staining based fluorescence microscopic analysis. In kind it is functional, cell-based.
Data set [7] has as its system Neutrophil. Kind of data set: Inhibition of PMA-induced superoxide production in C57BL6 mouse neutrophils at 2.5 uM preincubated for 30 mins followed by PMA stimulation and measured after 30 mins by luminol-lucignenin based luminescence assay. In kind it is functional, cell-based.
For data set [8], the system named is NIH3T3. Nature of the data set: Inhibition of TBHP-induced ferroptosis in mouse NIH/3T3 cells after 12 hrs by WST-8 assay. In kind it is functional, cell-based. Particulars: NIH3T3, 12 h.
Data set [9] deals with THP-1. Kind of data set: Inhibition of Pseudomonas aeruginosa-induced pyroptosis in human THP1 cells at 10 uM preincubated for 1 hr followed by bacterial infection and measured after 2 hrs by INT dye based LDH assay. The format is functional, cell-based.
Data set [10] relates to THP-1. Kind of data set: Inhibition of Staphylococcus aureus-induced pyroptosis in human THP1 cells at 10 uM preincubated for 1 hr followed by bacterial infection and measured after 2 hrs by INT dye based LDH assay. In kind it is functional, cell-based.
The nature of data set [11]: Aqueous solubility of compound in citrate-phosphate buffer at pH 7.0 after 30 mins by HPLC analysis. The format is physicochemical.
Data set [12] relates to Neutrophil. Kind of data set: Inhibition of PMA-induced NETosis in human neutrophils assessed as effect on lipid peroxidation at 100 uM preincubated for 30 mins followed by PMA stimulation measured after 30 mins by C11-Bodipy fluorescent dye based flow cytometry. In kind it is functional, cell-based.
Data set [13] relates to Neutrophil. Nature of the data set: Inhibition of PMA-induced superoxide production in C57BL6 mouse neutrophils at 100 uM preincubated for 30 mins followed by PMA stimulation and measured after 30 mins by luminol-lucignenin based luminescence assay. In kind it is functional, cell-based.
Data set [14] relates to Neutrophil. Nature of the data set: Inhibition of PMA-induced NETosis in human neutrophils at 100 uM preincubated for 30 mins followed by PMA stimulation and measured after 3 hrs by Hoechst […] staining based fluorescence microscopic analysis. The format is functional, cell-based.
Data set [15] deals with Neutrophil. Kind of data set: Inhibition of PMA-induced NETosis in human neutrophils at […] preincubated for 30 mins followed by PMA stimulation and measured after 3.5 hrs by Hoechst […] staining based fluorescence microscopic analysis. In kind it is functional, cell-based.

Calls of active or inactive are those of the source. No cut-off for these calls is given here.

On to `CCCNC1=C(c2cn(C)c3ccccc23)C(=O)N(C(C)C)C1=O`, for which the 50% inhibitory concentration (IC50) in [1] worked out at 0.034 µM.

On to `CCOC(=O)c1ccc(NC2CCCCC2)c(N)c1`, for which the inhibition entry in data set [2], in data set [5], in [6] and in [7] was “inactive” in each case. Moreover, the inhibition result in data set [3] was “Active”. Also, the IC50 in data set [4] came out at 0.27 µM; in data set [8], 0.22 µM.

Take `CCCNC1=C(c2cn(C)c3ccccc23)C(=O)N(Cc2ccccc2)C1=O`: the 50% inhibitory concentration (IC50) in data set [1] is 0.45 µM.

Turning to `CCCNC(=O)[C@H]1O[C@@H]1C(=O)N[C@H](C(=O)N1CCC[C@H]1C(=O)OC)[C@@H](C)CC`, the inhibition entry in data set [9] and in [10] was “Active” each time.

For the compound `CN1C(=O)C(c2cn(C)c3ccccc23)=C(N2CCCC2)C1=O`, the IC50 in [1] came out at 4.7 µM.

Regarding `C[C@H](NC1=C(c2cn(C)c3ccccc23)C(=O)N(C)C1=O)c1ccccc1`, the IC50 in data set [1] was determined as 0.51 µM.

In the case of `CCCCCCCCCCCCCN1C(=O)C(NCCC)=C(c2cn(C)c3ccccc23)C1=O`, the IC50 in data set [1] was found to be 0.4 µM.

For the compound `CN1C(=O)C(NCC2CCCCC2)=C(c2cn(C)c3ccccc23)C1=O`, the IC50 in data set [1] worked out at 0.39 µM.

Take `CN1C(=O)C(NC(C)(C)C)=C(c2cn(C)c3ccccc23)C1=O`: the IC50 in [1] came to 0.88 µM.

`CN1C(=O)C(NCCN)=C(c2cn(C)c3ccccc23)C1=O.Cl` showed a solubility at 0.5 h in data set [11] of 71 mM.

For the compound `CN1C(=O)C(NCc2ccc(Cl)cc2)=C(c2cn(C)c3ccccc23)C1=O`, in data set [1], the IC50 amounted to 0.31 µM.

On to `CCCNC1=C(c2cn(C)c3ccccc23)C(=O)N(CC)C1=O`, for which, in data set [1], the IC50 was found to be 0.75 µM.

On to `CN1C(=O)C(NC2CCCCC2)=C(c2cn(C)c3ccccc23)C1=O`, for which the half-inhibitory concentration (IC50) in data set [1] is 1 µM.

Consider `CN1C(=O)C(NC2CCCC2)=C(c2cn(C)c3ccccc23)C1=O`, for which the IC50 in data set [1] turned out to be 0.3 µM.

Turning to `CN1C(=O)C(NCc2ccccn2)=C(c2cn(C)c3ccccc23)C1=O`, in [1], the IC50 stood at 1.3 µM.

As to `CN1C(=O)C(NCc2ccco2)=C(c2cn(C)c3ccccc23)C1=O`, the IC50 in data set [1] came out at 0.71 µM.

For `CN(C)CCNC1=C(c2cn(C)c3ccccc23)C(=O)N(C)C1=O`, the IC50 in [1] worked out at 0.76 µM.

For the compound `CN(C)CCCNC1=C(c2cn(C)c3ccccc23)C(=O)N(C)C1=O`, in data set [1], the concentration for half-maximal inhibition (IC50) came to 0.61 µM.

On to `CN(C)C1=C(c2cn(C)c3ccccc23)C(=O)N(C)C1=O`, for which the IC50 in data set [1] amounted to 4.3 µM.

With `CCCCCN1C(=O)C(NCCC)=C(c2cn(C)c3ccccc23)C1=O`, the IC50 in [1] came out at 0.32 µM.

Take `CN1C(=O)C(NCc2ccccc2Cl)=C(c2cn(C)c3ccccc23)C1=O`: the IC50 in [1] stood at 1.7 µM.

For `COc1ccccc1CNC1=C(c2cn(C)c3ccccc23)C(=O)N(C)C1=O`, in data set [1], the IC50 came to 0.48 µM.

Consider `CCCNC1=C(c2cn(C)c3ccccc23)C(=O)N(CCC)C1=O`, for which the IC50 in data set [1] turned out to be 0.61 µM.

Consider `COc1ccc(CNC2=C(c3cn(C)c4ccccc34)C(=O)N(C)C2=O)cc1`, for which the IC50 in data set [1] is 0.86 µM.

With `CCCCN1C(=O)C(NCCC)=C(c2cn(C)c3ccccc23)C1=O`, the IC50 in data set [1] turned out to be 0.35 µM.

Regarding `CCCNC1=C(c2cn(C)c3ccccc23)C(=O)N(C(c2ccccc2)(c2ccccc2)c2ccccc2)C1=O`, the IC50 in data set [1] amounted to 0.8 µM.

Regarding `CC(=O)N(O)CCCCCNC(=O)CCC(=O)N(O)CCCCCNC(=O)CCC(=O)N(O)CCCCCN` [DEFEROXAMINE], in data set [12], the result was inactive. Besides, the inhibition result in data set [13] and in data set [14] was “inactive” in each case. Further, the IC50 in [4] was found to be 4.9 µM; in data set [8], 9 µM.

For `CN1C(=O)C(NCCc2ccccc2)=C(c2cn(C)c3ccccc23)C1=O`, the IC50 in [1] was found to be 0.65 µM.

As for `CCCCCNC1=C(c2cn(C)c3ccccc23)C(=O)N(C)C1=O`, the solubility at 0.5 h in data set [11] was under 0.001 mM.

Consider `COc1cccc(CNC2=C(c3cn(C)c4ccccc34)C(=O)N(C)C2=O)c1`, for which, in [1], the half-maximal inhibitory concentration (IC50) amounted to 0.42 µM.

As for `CCCNC1=C(c2cn(C)c3ccccc23)C(=O)N(C2CCCC2)C1=O`, the IC50 in data set [1] came to 0.28 µM.

For `CN1C(=O)C(NCc2cccc(Cl)c2)=C(c2cn(C)c3ccccc23)C1=O`, the IC50 in data set [1] is 0.28 µM.

`CN1C(=O)C(N)=C(c2cn(C)c3ccccc23)C1=O`: in data set [1], the IC50 worked out at 4.5 µM.

Consider `CCCNC1=C(c2cn(C)c3ccccc23)C(=O)N(C(CC)CC)C1=O`, for which the IC50 in [1] was 0.48 µM.

Take `CC(=O)N[C@@H](CS)C(=O)O`: the inhibition result in [15] was “inactive”.

As to `CN1C(=O)C(NCc2cccnc2)=C(c2cn(C)c3ccccc23)C1=O`, the IC50 in [1] worked out at 1.3 µM.

Regarding `CN1C(=O)C(NCc2ccncc2)=C(c2cn(C)c3ccccc23)C1=O`, the IC50 in data set [1] came out at 1.2 µM.

For `CN1C(=O)C(NC2CC2)=C(c2cn(C)c3ccccc23)C1=O`, in [1], the IC50 came to 3.8 µM.

In the case of `CC(C)NC1=C(c2cn(C)c3ccccc23)C(=O)N(C)C1=O`, the IC50 in data set [1] worked out at 0.48 µM.

As for `CN1C(=O)C(NC(c2ccccc2)c2ccccc2)=C(c2cn(C)c3ccccc23)C1=O`, in data set [1], the IC50 is 1.2 µM.

`CN1C(=O)C(NCc2ccccc2)=C(c2cn(C)c3ccccc23)C1=O`: the IC50 in [1] was 0.33 µM.

Regarding `C[C@@H](NC1=C(c2cn(C)c3ccccc23)C(=O)N(C)C1=O)c1ccccc1`, the IC50 in data set [1] was 0.39 µM.
